Reference: patent US20250085300A1, “STABILITY-ENHANCING COMPOSITIONS AND METHODS OF PREPARING COMPOUNDS” (FOGHORN THERAPEUTICS INC., priority 2021, published 2025)
Entries after “also recorded” stand apart in the source; their conditions may differ.

How the values were obtained:
BRD9 = target: T1, BRD9 (Homo sapiens, UniProt Q9H8M2); test: BRD9 western blot in synovial sarcoma tumors in vivo (Example 11); set-up: species or system mice; details: 1 mg/kg i.p. for 4 weeks
T1 construct: Tumors were lysed with 1×RIPA lysis buffer; from tissue; host or cells: SYO-1 xenograft tumours from BALB/c Nude mice
T1 sequence (Q9H8M2 1-597): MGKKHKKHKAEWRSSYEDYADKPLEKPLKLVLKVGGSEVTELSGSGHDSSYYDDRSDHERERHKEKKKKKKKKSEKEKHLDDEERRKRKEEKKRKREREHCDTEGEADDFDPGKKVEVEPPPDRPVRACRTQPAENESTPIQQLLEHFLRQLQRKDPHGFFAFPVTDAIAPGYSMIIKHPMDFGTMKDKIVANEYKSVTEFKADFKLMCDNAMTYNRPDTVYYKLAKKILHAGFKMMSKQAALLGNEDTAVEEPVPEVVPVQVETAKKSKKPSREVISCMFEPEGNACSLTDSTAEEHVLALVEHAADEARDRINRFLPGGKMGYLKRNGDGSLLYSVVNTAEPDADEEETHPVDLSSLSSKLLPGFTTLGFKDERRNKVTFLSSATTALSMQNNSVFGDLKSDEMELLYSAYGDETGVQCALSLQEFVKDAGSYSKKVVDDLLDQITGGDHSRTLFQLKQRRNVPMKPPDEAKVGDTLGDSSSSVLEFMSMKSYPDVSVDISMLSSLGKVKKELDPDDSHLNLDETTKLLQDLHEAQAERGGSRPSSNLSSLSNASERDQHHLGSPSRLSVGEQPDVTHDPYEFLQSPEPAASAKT
Method: Method: Mice were treated with D1, 1 mg/kg, i.p. for 4 weeks. Mice were then euthanized, and tumors were collected at 8 hours, 72 hours, and 168 hours post last dose. Tumors were lysed with 1x RIPA lysis buffer (Boston BioProducts, BP-115D) with protease and phosphatase protein inhibitor (Roche Applied Science #04906837001 & 05892791001). Equal amounts of lysate (30 μg) were loaded in 4-12% Bis-Tris Midi Protein Gels in 1×MOPS buffer; samples ran at 120 V for 120 minutes. Protein was transferred to membrane with TransBlot at 250 mA for 150 minutes, and then membranes were blocked with Odyssey blocking buffer for 1 hour at room temperature. Membranes were hybridized overnight in cold room with primary antibodies. Images acquired using Li-COR imaging system (Li-COR Biotechnology, Lincoln, Nebraska).

[1] = target: T2, Nanoluciferase-BRD9 fusion protein (Homo sapiens, UniProt Q9H8M2); test: SYO1 BRD9 NanoLuc degradation assay; assay type: cell-based; details: 6 hours
T2 construct: expressed in transfected cells
Method: Procedure: A stable SYO-1 cell line expressing 3×FLAG-NLuc-BRD9 was generated. On day 0 cells were seeded in 30 μL media into each well of 384-well cell culture plates. The seeding density was 8000 cells/well. On day 1, cells were treated with 30 nL DMSO or 30 nL of 3-fold serially DMSO-diluted compounds (10 points in duplicates with 1 μM as final top dose). Subsequently plates were incubated for 6 hours in a standard tissue culture incubator and equilibrated at room temperature for 15 minutes. Nanoluciferase activity was measured by adding 15 μL of freshly prepared Nano-Glo Luciferase Assay Reagent (Promega N1130), shaking the plates for 10 minutes and reading the bioluminescence using an EnVision reader.
Results: The Inhibition % was calculated using the following formula: % Inhibition=100×(LumHC−LumSample)/(LumHC−LumLC). DMSO treated cells are employed as High Control (HC) and 1 μM of a known BRD9 degrader standard treated cells are employed as Low Control (LC).

[2] = test system: synovial sarcoma cell lines (SYO1, HS-SY-II, and ASKA); test: Growth of synovial sarcoma cell lines, crystal violet day 14 (Example 3); assay type: cell-based; details: daily treatment
Method: (§1) Procedure: Cells were seeded into 6-well or 12-well plates and were treated daily with a BRD9 degrader (Compound 1), a bromo-domain BRD9 binder (Compound 2), E3 ligase binder (lenalidomide), DMSO, or staurosporin (positive control for cell killing), at indicated concentrations. The number of cells was optimized for each cell line. Growth media was refreshed every 5 days. By day 14, medium was removed, cells were washed with PBS, and stained using 500 μL of 0.005% (w/v) crystal violet solution in 25% (v/v) methanol for at least 1 hour at room temperature. Subsequently plates were scanned on an Odyssey CLx Imaging system.

[3] = test system: non-synovial control cancer cell lines (RD, HCT116, and Calu6); test: Growth of non-synovial control cancer cell lines, crystal violet day 14 (Example 3); assay type: cell-based; details: daily treatment
Method: as §1

[4] = test system: synovial sarcoma cell lines (SYO1, Yamato, HS-SY-II, and ASKA); test: Growth of synovial sarcoma cell lines (Example 2: IncuCyte confluency, crystal violet, colonies); assay type: cell-based; details: 1 μM or indicated concentrations
Method: (§2) Cells were treated with DMSO or the BRD9 degrader, Compound 1, at indicated concentrations, and proliferation was monitored from day 7 to day 14 by measuring confluency over time using an IncuCyte live cell analysis system (FIG. 4). Growth medium and compounds were refreshed every 3-4 days.
(§3) Cells were seeded into 12-well plates and treated with DMSO, 1 μM BRD9 inhibitor, Compound 2 (also known as BI-7273, see Martin et al, J Med Chem. 59 (10): 4462-4475 (2016); see structure of compound 2 below), or 1 μM BRD9 degrader, Compound 1.
(§4) The number of cells was optimized for each cell line. Growth medium and compounds were refreshed every 3-5 days. SYO1, Yamato, A549, 293T and HS-SY-II cells were fixed and stained at day 11. ASKA cells were fixed and stained at day 23. Staining was done by incubation with crystal violet solution (0.5 g Crystal Violet, 27 ml 37% Formaldehyde, 100 mL 10×PBS, 10 mL Methanol, 863 dH20 to 1 L) for 30 min followed by 3×washes with water and drying the plates for at least 24 h at room temperature. Subsequently plates were scanned on an Odyssey CLx Imaging system (FIG. 5).
(§5) Cells were seeded into 96-well ultra-low cluster plate (Costar, #7007) in 200 μL complete media and treated at day 2 with DMSO, Staurosporin, or BRD9 degrader, Compound 1, at indicated doses (FIG. 2C). Media and compounds were changed every 5 d and cell colonies were imaged at day 14.

[5] = test system: non-synovial control cancer cell lines (293T, A549, G401); test: Growth of non-synovial control cancer cell lines (Example 2); assay type: cell-based
Method: as §2, §3, §4, §5

SYO1 cells [6] = test: Cell cycle analysis (Click-iT Plus EdU flow cytometry); assay type: cell-based; details: 200 nM or 1 μM, 8 or 13 days, compared to DMSO and lenalidomide
Method: (§6) Procedure: SYO1 cells were treated for 8 or 13 days with DMSO, a BRD9 degrader (Compound 1) at 200 nM or 1 μM, or an E3 ligase binder (lenalidomide) at 200 nM. Compounds were refreshed every 5 days. Cell cycle analysis was performed using the Click-iT™ Plus EdU Flow Cytometry Assay (Invitrogen). The apoptosis assay was performed using the Annexin V-FITC Apoptosis Detection Kit (Sigma A9210). Assays were performed according to the manufacturer's protocol.

SYO1 cells [7] = test: Apoptosis assay (Annexin V-FITC); assay type: cell-based; details: 200 nM or 1 μM, 8 days, compared to DMSO controls
Method: as §6

T2 sequence (Q96SW2 whole entry partner, one chain of several, the tested form may be a part): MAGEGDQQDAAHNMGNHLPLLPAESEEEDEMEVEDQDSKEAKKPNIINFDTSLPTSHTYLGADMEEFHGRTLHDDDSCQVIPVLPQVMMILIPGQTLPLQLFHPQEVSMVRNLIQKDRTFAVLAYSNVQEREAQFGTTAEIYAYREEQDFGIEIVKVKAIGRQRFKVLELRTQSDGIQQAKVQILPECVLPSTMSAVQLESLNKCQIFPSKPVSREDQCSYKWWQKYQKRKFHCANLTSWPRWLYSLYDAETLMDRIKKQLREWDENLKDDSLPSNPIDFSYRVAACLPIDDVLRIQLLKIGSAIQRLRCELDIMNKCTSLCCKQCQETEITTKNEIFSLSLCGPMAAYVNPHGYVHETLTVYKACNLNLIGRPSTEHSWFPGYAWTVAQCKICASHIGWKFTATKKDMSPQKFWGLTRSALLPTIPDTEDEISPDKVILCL

| Structure (SMILES) | time after dose with complete degradation of BRD9 (BRD9) | BRD9 level in tumor (western blot) (BRD9; tumors 8, 72, 168 hours post last dose) | IC50 [1] [nM] | inhibition of cell growth [2] | inhibition of cell growth [3] | inhibition of cell growth [4] | inhibition of cell growth [5] | numbers of cells in the S-phase of the cell cycle (SYO1 cells [6]) | numbers of early- and late-apoptotic cells (SYO1 cells [7]) |
| --- | --- | --- | --- | --- | --- | --- | --- | --- | --- |
| COc1cc(-c2cn(C)c(=O)c3cnc(N4CCC4)cc23)cc(OC)c1CN1CCC(CN2CCC3(CC2)CN(c2ccc4c(c2)C(=O)N(C2CCC(=O)NC2=O)C4)C3)CC1 (racemic) [Compound D1, 3-[6-(7-[[1-([4-[6-(azetidin-1-yl)-2-methyl-1-oxo-2,7-naphthyridin-4-yl]-2,6-dimethoxyphenyl]methyl)piperidin-4-yl]methyl]-2,7-diazaspiro[3.5]nonan-2-yl)-1-oxo-3H-isoindol-2-yl]piperidine-2,6-dione] | up to 168 hours | complete degradation | 0.13 | – | – | – | – | – | – |
| COc1cc(-c2cn(C)c(=O)c3cnccc23)cc(OC)c1CN(C)C [Compound 2] | – | – | – | inhibition of the growth of the cells | did not result in inhibition of the growth | inhibition of the growth of the cells | does not result in inhibition of the growth | – | – |
| COc1cc(-c2cn(C)c(=O)c3cnccc23)cc(OC)c1CN(C)CC(=O)NCCOCCOCCNc1cccc2c1C(=O)N(C1CCC(=O)NC1=O)C2=O (stereo not shown) [Compound 1] | – | – | – | inhibition of the growth of the cells; also recorded: most significant growth inhibition | did not result in inhibition of the growth | inhibition of the growth of the cells | does not result in inhibition of the growth | reduced numbers of cells in the S-phase | increased numbers of early- and late-apoptotic cells |
